± gives the expanded uncertainty stated by the source.
Legend:
[1] = Crystal
[2] = Molar enthalpy of transition or fusion; details: Crystal; DSC

mass density ([1]; 293 K, 101.33 kPa, X-ray diffraction): 1120 ± 5.8 kg/m3
Triple point temperature ([1]; DSC): 351.28 ± 0.87 K
Molar enthalpy of transition or fusion [2]: 3.75 ± 0.206 kcal/mol
SMILES: CCNC(=S)NCC [N,N'-diethylthiourea]
